One compound from patent publication US11110171B2, “PD-1 related cancer therapy” (New York University, priority 2017, dated 2021) can be followed below.

For assay [1], the system named is phosphorylation of ERK, PLCγ and ZAP70 in Jurkat T cells. Put plainly: Immunoblot of PD-1 signaling in Jurkat T cells stimulated with anti-CD3 or anti-CD3+PDL2 beads. The assay is classed as cell-based, human. As to conditions: SAP-deficient (SAP KD) Jurkat T cells, SHP099 10 uM for one hour, anti-CD3+PDL2 beads 5 minutes. Background: A western blot detects proteins with antibodies after separation by electrophoresis.

For assay [2], the system named is IL-2 secretion of human CD3+ T cells. Put plainly: IL-2 secretion (ELISA) of primary human CD3+ T cells stimulated with anti-CD3 or anti-CD3+PDL2 beads. The conditions noted are these: control or SAP KD siRNA, anti-CD3+PDL2 beads 24 hours. In kind it is cell-based. The method, then:
FIG. 13. (a) Jurkat T cells were transfected with non-targeting siRNA control and siRNA to SAP, followed by immunoblot analysis. […] Media was harvested and IL-2 levels were measured (ELISA). * P<0.05, NS not significant, n=3, unpaired t test. (c) control vector or SAP-expressing vector for 48 hours and samples were analyzed for SAP expression by immunoblotting. (d) Cell expressing SAP were stimulated overnight and CD69 expression levels were recorded by FACS. (e) T cells from XLP patients and healthy controls were tested for PD-1 expression by FACS analysis. For FIG. 7b 13b, the bars from left to right for each set are: Control, CD3, and CD3+PDL2.
By contrast, overexpression of SAP-GFP (FIG. 13c and FIG. 5b) abrogated the ability of PD-1 to inhibit anti-CD3-induced IL-2 secretion (FIG. 5c), CD69 up regulation (FIG. 5d and FIG. 13d), IFN-γ release (FIG. 5e), and T cell adhesion to fibronectin-coated wells (FIG. 5f). Thus, SAP appears to be a negative regulator of PD-1 signaling and function in T cells.
Primary human T cells were isolated from whole blood using RosetteSep (Stemcell) followed by Ficoll-Paque, according to the manufacturer's instructions. The cells were maintained in enriched media (HEPES 25 mM, Sodium pyruvate 100 mM, Nonessential amino acid, and L-Glutamine) at 5% C02 and 37° C. […]
(An ELISA detects its analyte on a solid surface through an enzyme-linked reagent.)

For the compound `CC1(N)CCN(c2cnc(-c3cccc(Cl)c3Cl)c(N)n2)CC1.Cl` [SHP099], the “PD-1's ability to inhibit the phosphorylation of ERK, PLCγ and ZAP70” value in assay [1] is listed as “abrogated”. Besides, in assay [2], the “PD-1's ability to inhibit IL-2 secretion” value is listed as “abrogation”.
